# Reference: article PMC11576293, “New series of 4,6-diaryl pyrimidines: facile synthesis and antiproliferative activity as dual EGFR/VEGFR-2 inhibitors” (Frontiers in Chemistry, 2024)
# Tested on: A-549
# Assay: Antiproliferative assay (MTT)
# Type: cell-based
# Conditions: Homo sapiens, A549, A-549 (lung), read-out: Antiproliferative activity IC50 ± SEM, A-549
# Description: (§1) The MTT test was employed for this investigation ([Hisham et al., 2022]; [El-Sherief et al., 2019]; [Ramadan et al., 2020]). Table 2 presents the four cancer cell lines’ median inhibitory concentration (IC50) and GI50 (average IC50) values.
# (§2) The MTT test was employed for this investigation ([Hisham et al., 2022]; [El-Sherief et al., 2019]; [Ramadan et al., 2020]). The IC50 values were derived from dose-response tests. The reported data are derived from at least two independent studies, each comprising three replicates per concentration. See Supplementary Material A1 for more details.
# (§3) (in 0.1% DMSO) were added (in 200 μL medium to yield a final concentration of 0.1% v/v) to the wells of plates. A single compound was designated with four wells followed by incubation of plates for 96h at 37°C. After incubation, medium was removed completely from the plates followed by addition of MTT (0.4 mg/mL in medium) to each well and subsequent incubation of plates for 3h. MTT (along with the medium) was removed and DMSO (150μL) was added to each well of the culture plates, followed by vertexing and subsequent measurement of absorbance (at 540 nm) using microplate reader. The data are shown as percentage inhibition of proliferation in comparison with controls containing 0.1% DMSO.
# (§4) 4.2.1.2. Assay for antiproliferative effect […]
# (§5) (10%) and 1 µg/mL each of aprotinin, leupeptin and pepstatin for 120 min. The purification was performed either at 4 °C or on ice. To record autophosphorylation level, EGFR kinase assay was carried out on the basis of DELFIA/Time-Resolved Fluorometry. The compounds were first
# (§6) (1 picture or pasted object on this page, not shown here)
row,Compound,IC50
1,"COc1ccc(-c2cc(-c3cccc(OC)c3)nc(SC)n2)cc1 [Compound 16, 6-(3-Methoxyphenyl)-4-(4-methoxyphenyl)-2-(methylthio)pyrimidine]",86 ± 7 nM
2,"CCSc1nc(-c2ccc(OC)cc2)cc(-c2cccc(OC)c2)n1 [Compound 17, 2-(Ethylthio)-6-(3-methoxyphenyl)-4-(4-methoxyphenyl)pyrimidine]",28 ± 2 nM

# Tested on: MCF-7
# Assay: Antiproliferative assay (MTT)
# Type: cell-based
# Conditions: Homo sapiens, MCF7, MCF-7 (breast), read-out: Antiproliferative activity IC50 ± SEM, MCF-7
# Description: as §1, §2, §3, §4, §5, §6
row,Compound,IC50
1,"COc1ccc(-c2cc(-c3cccc(OC)c3)nc(SC)n2)cc1 [Compound 16, 6-(3-Methoxyphenyl)-4-(4-methoxyphenyl)-2-(methylthio)pyrimidine]",89 ± 8 nM
2,"CCSc1nc(-c2ccc(OC)cc2)cc(-c2cccc(OC)c2)n1 [Compound 17, 2-(Ethylthio)-6-(3-methoxyphenyl)-4-(4-methoxyphenyl)pyrimidine]",30 ± 3 nM

# Tested on: Panc-1
# Assay: Antiproliferative assay (MTT)
# Type: cell-based
# Conditions: Homo sapiens, Panc-1 (pancreatic), read-out: Antiproliferative activity IC50 ± SEM, Panc-1
# Description: as §1, §2, §3, §4, §5, §6
row,Compound,IC50
1,"COc1ccc(-c2cc(-c3cccc(OC)c3)nc(SC)n2)cc1 [Compound 16, 6-(3-Methoxyphenyl)-4-(4-methoxyphenyl)-2-(methylthio)pyrimidine]",85 ± 8 nM
2,"CCSc1nc(-c2ccc(OC)cc2)cc(-c2cccc(OC)c2)n1 [Compound 17, 2-(Ethylthio)-6-(3-methoxyphenyl)-4-(4-methoxyphenyl)pyrimidine]",28 ± 2 nM

# Tested on: HT-29
# Assay: Antiproliferative assay (MTT)
# Type: cell-based
# Conditions: Homo sapiens, HT-29 (colon), read-out: Antiproliferative activity IC50 ± SEM, HT-29
# Description: as §1, §2, §3, §4, §5, §6
row,Compound,IC50
1,"COc1ccc(-c2cc(-c3cccc(OC)c3)nc(SC)n2)cc1 [Compound 16, 6-(3-Methoxyphenyl)-4-(4-methoxyphenyl)-2-(methylthio)pyrimidine]",85 ± 8 nM
2,"CCSc1nc(-c2ccc(OC)cc2)cc(-c2cccc(OC)c2)n1 [Compound 17, 2-(Ethylthio)-6-(3-methoxyphenyl)-4-(4-methoxyphenyl)pyrimidine]",29 ± 2 nM

# Tested on: DU-145
# Assay: NCI-60 single-dose screen
# Type: cell-based
# Conditions: Homo sapiens, single dose 10 µM, '-' = no inhibition, read-out: % Growth Inhibition
# Protocol: (§7) The National Cancer Institute’s Developmental Therapeutic Program (www.dtp.nci.nih.gov) has tested compounds 9–29 (except compounds 21 and 22) against 60 cancer cell lines from nine types (leukemia, lung, colon, CNS, melanoma, ovarian, renal, prostate, and breast cancer) at a single dose (10 μM) ([El-Sherief et al., 2018]). […] The most sensitive cells included leukemia (SR, K-562, and MOLT-4), lung (NCI-H522, […], and EKVX), breast (MCF-7 and T-47D), colon (HCT-15 and HT-29), and ovarian (NCI/ADR-RES).
# (§8) The National Cancer Institute’s Developmental Therapeutic Program (www.dtp.nci.nih.gov) evaluated compounds 9–29 (excluding 21 and 22) against 60 cancer cell lines from nine categories (leukemia, lung, colon, CNS, melanoma, ovarian, renal, prostate, and breast cancer) at a single dose (10 μM) ([El-Sherief et al., 2018]). See Supplementary Material A1 for more details.
row,Compound,inhibition at 10 µM
1,"COc1ccc(-c2cc(-c3cccc(OC)c3)nc(SC)n2)cc1 [Compound 16, 6-(3-Methoxyphenyl)-4-(4-methoxyphenyl)-2-(methylthio)pyrimidine]",6.56%
2,"CCSc1nc(-c2ccc(OC)cc2)cc(-c2cccc(OC)c2)n1 [Compound 17, 2-(Ethylthio)-6-(3-methoxyphenyl)-4-(4-methoxyphenyl)pyrimidine]",< 0%

# Tested on: OVCAR-3
# Assay: NCI-60 single-dose screen
# Type: cell-based
# Conditions: Homo sapiens, single dose 10 µM, '-' = no inhibition, read-out: % Growth Inhibition
# Protocol: as §7, §8
row,Compound,inhibition at 10 µM
1,"COc1ccc(-c2cc(-c3cccc(OC)c3)nc(SC)n2)cc1 [Compound 16, 6-(3-Methoxyphenyl)-4-(4-methoxyphenyl)-2-(methylthio)pyrimidine]",< 0%
2,"CCSc1nc(-c2ccc(OC)cc2)cc(-c2cccc(OC)c2)n1 [Compound 17, 2-(Ethylthio)-6-(3-methoxyphenyl)-4-(4-methoxyphenyl)pyrimidine]",< 0%

# Tested on: SF-295
# Assay: NCI-60 single-dose screen
# Type: cell-based
# Conditions: Homo sapiens, single dose 10 µM, '-' = no inhibition, read-out: % Growth Inhibition
# Protocol: as §7, §8
row,Compound,inhibition at 10 µM
1,"COc1ccc(-c2cc(-c3cccc(OC)c3)nc(SC)n2)cc1 [Compound 16, 6-(3-Methoxyphenyl)-4-(4-methoxyphenyl)-2-(methylthio)pyrimidine]",4.05%
2,"CCSc1nc(-c2ccc(OC)cc2)cc(-c2cccc(OC)c2)n1 [Compound 17, 2-(Ethylthio)-6-(3-methoxyphenyl)-4-(4-methoxyphenyl)pyrimidine]",< 0%

# Tested on: HCT-116
# Assay: NCI-60 single-dose screen
# Type: cell-based
# Conditions: Homo sapiens, single dose 10 µM, '-' = no inhibition, read-out: % Growth Inhibition
# Protocol: as §7, §8
row,Compound,inhibition at 10 µM
1,"COc1ccc(-c2cc(-c3cccc(OC)c3)nc(SC)n2)cc1 [Compound 16, 6-(3-Methoxyphenyl)-4-(4-methoxyphenyl)-2-(methylthio)pyrimidine]",17.3%
2,"CCSc1nc(-c2ccc(OC)cc2)cc(-c2cccc(OC)c2)n1 [Compound 17, 2-(Ethylthio)-6-(3-methoxyphenyl)-4-(4-methoxyphenyl)pyrimidine]",5.86%

# Tested on: HS 578T
# Assay: NCI-60 single-dose screen
# Type: cell-based
# Conditions: Homo sapiens, single dose 10 µM, '-' = no inhibition, read-out: % Growth Inhibition
# Protocol: as §7, §8
row,Compound,inhibition at 10 µM
1,"COc1ccc(-c2cc(-c3cccc(OC)c3)nc(SC)n2)cc1 [Compound 16, 6-(3-Methoxyphenyl)-4-(4-methoxyphenyl)-2-(methylthio)pyrimidine]",5.45%
2,"CCSc1nc(-c2ccc(OC)cc2)cc(-c2cccc(OC)c2)n1 [Compound 17, 2-(Ethylthio)-6-(3-methoxyphenyl)-4-(4-methoxyphenyl)pyrimidine]",< 0%

# Tested on: MDA-MB-435
# Assay: NCI-60 single-dose screen
# Type: cell-based
# Conditions: Homo sapiens, single dose 10 µM, '-' = no inhibition, read-out: % Growth Inhibition
# Protocol: as §7, §8
row,Compound,inhibition at 10 µM
1,"COc1ccc(-c2cc(-c3cccc(OC)c3)nc(SC)n2)cc1 [Compound 16, 6-(3-Methoxyphenyl)-4-(4-methoxyphenyl)-2-(methylthio)pyrimidine]",6.06%
2,"CCSc1nc(-c2ccc(OC)cc2)cc(-c2cccc(OC)c2)n1 [Compound 17, 2-(Ethylthio)-6-(3-methoxyphenyl)-4-(4-methoxyphenyl)pyrimidine]",2.52%

# Tested on: CAKI-1
# Assay: NCI-60 single-dose screen
# Type: cell-based
# Conditions: Homo sapiens, single dose 10 µM, '-' = no inhibition, read-out: % Growth Inhibition
# Protocol: as §7, §8
row,Compound,inhibition at 10 µM
1,"COc1ccc(-c2cc(-c3cccc(OC)c3)nc(SC)n2)cc1 [Compound 16, 6-(3-Methoxyphenyl)-4-(4-methoxyphenyl)-2-(methylthio)pyrimidine]",20.8%
2,"CCSc1nc(-c2ccc(OC)cc2)cc(-c2cccc(OC)c2)n1 [Compound 17, 2-(Ethylthio)-6-(3-methoxyphenyl)-4-(4-methoxyphenyl)pyrimidine]",9.72%

# Tested on: HOP-92
# Assay: NCI-60 single-dose screen
# Type: cell-based
# Conditions: Homo sapiens, single dose 10 µM, '-' = no inhibition, read-out: % Growth Inhibition
# Protocol: as §7, §8
row,Compound,inhibition at 10 µM
1,"COc1ccc(-c2cc(-c3cccc(OC)c3)nc(SC)n2)cc1 [Compound 16, 6-(3-Methoxyphenyl)-4-(4-methoxyphenyl)-2-(methylthio)pyrimidine]",1.87%
2,"CCSc1nc(-c2ccc(OC)cc2)cc(-c2cccc(OC)c2)n1 [Compound 17, 2-(Ethylthio)-6-(3-methoxyphenyl)-4-(4-methoxyphenyl)pyrimidine]",< 0%

# Tested on: SW-620
# Assay: NCI-60 single-dose screen
# Type: cell-based
# Conditions: Homo sapiens, single dose 10 µM, '-' = no inhibition, read-out: % Growth Inhibition
# Protocol: as §7, §8
row,Compound,inhibition at 10 µM
1,"COc1ccc(-c2cc(-c3cccc(OC)c3)nc(SC)n2)cc1 [Compound 16, 6-(3-Methoxyphenyl)-4-(4-methoxyphenyl)-2-(methylthio)pyrimidine]",1.89%
2,"CCSc1nc(-c2ccc(OC)cc2)cc(-c2cccc(OC)c2)n1 [Compound 17, 2-(Ethylthio)-6-(3-methoxyphenyl)-4-(4-methoxyphenyl)pyrimidine]",1.81%

# Tested on: SN12C
# Assay: NCI-60 single-dose screen
# Type: cell-based
# Conditions: Homo sapiens, single dose 10 µM, '-' = no inhibition, read-out: % Growth Inhibition
# Protocol: as §7, §8
row,Compound,inhibition at 10 µM
1,"COc1ccc(-c2cc(-c3cccc(OC)c3)nc(SC)n2)cc1 [Compound 16, 6-(3-Methoxyphenyl)-4-(4-methoxyphenyl)-2-(methylthio)pyrimidine]",17.9%
2,"CCSc1nc(-c2ccc(OC)cc2)cc(-c2cccc(OC)c2)n1 [Compound 17, 2-(Ethylthio)-6-(3-methoxyphenyl)-4-(4-methoxyphenyl)pyrimidine]",< 0%

# Tested on: not listed separately
# Assay: Cell viability assay (MTT) on normal cells
# Type: cell-based
# Conditions: human, MCF-10A normal mammary gland epithelial cells, 4 days incubation
# Protocol: This experiment examines the impact of the newly developed compounds 9–29 on normal cell lines to assess their safety level. The vitality of the investigated compounds was assessed using the MCF-10 A cell line, a normal human mammary gland epithelial cell line. Following 4 days of incubation on MCF-10 A cells with each examined compound at a concentration of 50 μM, the vitality of the cells was assessed using the MTT test ([Mahmoud et al., 2022]; [Mekheimer et al., 2022]).
# This experiment examines the impact of the newly developed compounds 9–29 on normal cell lines to assess their safety level. The viability of 9–29 was assessed using the MCF-10 A cell line, a normal human mammary gland epithelial cell line. Following 4 days of incubation on MCF-10 A cells with each examined compound at a concentration of 50 μM, the vitality of the cells was assessed using the MTT test ([Mahmoud et al., 2022]; [Mekheimer et al., 2022]). Refer to Supplementary Material A1 for more details. […]
# 4.2. Biological evaluation
# 4.2.1. Cytotoxic activity using MTT Assay and evaluation of IC50
# MTT assay was carried out to study the effect of compounds on mammary epithelial cells (MCF-10A). The medium in which cells were propagated contained Dulbecco's modified Eagle's medium (DMEM)/ Ham's F-12 medium (1:1) supplemented with epidermal growth factor (20 ng/mL), hydrocortisone (500 ng/mL), insulin (10 μg/mL), 2 mM glutamine and 10% foetal calf serum.
# as §3, with “After every 2-3 days, the cells were passaged using trypsin ethylenediamine tetra acetic acid (EDTA). The cells were seeded at a density of 10^4 cells mL-1 in flat-bottomed culture plates containing 96 wells each. After 24 h, medium was removed from the plates and the compounds in (in 0.1%” for “(in 0.1%”, “0.1% DMSO. […]” for “0.1% DMSO.”
row,Compound,"viability at 4 days, 50 µM"
1,"COc1ccc(-c2cc(-c3cccc(OC)c3)nc(SC)n2)cc1 [Compound 16, 6-(3-Methoxyphenyl)-4-(4-methoxyphenyl)-2-(methylthio)pyrimidine]",92%
2,"CCSc1nc(-c2ccc(OC)cc2)cc(-c2cccc(OC)c2)n1 [Compound 17, 2-(Ethylthio)-6-(3-methoxyphenyl)-4-(4-methoxyphenyl)pyrimidine]",90%

# Tested on: not given
# Assay: not given
# Conditions: not given
row,Compound,melting point
1,"COc1ccc(-c2cc(-c3cccc(OC)c3)nc(SC)n2)cc1 [Compound 16, 6-(3-Methoxyphenyl)-4-(4-methoxyphenyl)-2-(methylthio)pyrimidine]",213 to 215 °C
2,"CCSc1nc(-c2ccc(OC)cc2)cc(-c2cccc(OC)c2)n1 [Compound 17, 2-(Ethylthio)-6-(3-methoxyphenyl)-4-(4-methoxyphenyl)pyrimidine]",221 to 222 °C
